From patent publication US20250352534A1 (Tesaro, Inc., priority 2022, published 2025)
Where two headings read alike, the source gives them in different places.

Key:
[1] = brain penetration in mouse brain metastatic tumor model (LC-MS, MALDI IMS); type: in vivo, mice; conditions: for Bulk Brain Homogenate Avg, adjusted free concentration / Bulk Brain Homogenate Avg, total concentration: LC-MS; for Bulk Brain Homogenate Avg, adjusted free concentration / Bulk Brain Homogenate Avg, total concentration / concentration at 2 h: 2 hr post final dose; for concentration at 2 h: plasma, po QD 5 days, niraparib 35 mg/kg, olaparib 50 mg/kg, read-out: Terminal Plasma Avg, total concentration
From the text: Female mice (CrTac:NCr-Foxnlnu; 6 w/o) received 2.5E5 luciferase transfected human breast cancer line (MDA 231-BRM2-831) via intracardiac injection. Mice were imaged twice/week using bioluminescence imaging (BLI) to monitor tumor growth. […] Tissue collected between each imaging plane was homogenized for LC-MS bioanalysis.

[2] = brain penetration in healthy Rhesus macaque monkeys (LC-MS, MALDI IMS); type: in vivo; conditions: for Bulk Brain Homogenate, adjusted free concentration / Bulk Brain Homogenate, total concentration: LC-MS; for Terminal CSF / Terminal Plasma, adjusted free concentration: at necropsy; for Kp, uu Brain/Plasma: from bulk brain homogenate and terminal plasma free concentrations
Description: Pre-dose blood was collected daily and terminal blood, cerebrospinal fluid (CSF), and brain tissue was collected at necropsy. […] Blood, CSF, and bulk homogenates of brain tissue were analyzed by LC-MS bioanalysis.

For `O=C(c1cc(Cc2n[nH]c(=O)c3ccccc23)ccc1F)N1CCN(C(=O)C2CC2)CC1` [olaparib], the Bulk Brain Homogenate Avg, adjusted free concentration ([1]; BM mice) was 2 ng/g, the Bulk Brain Homogenate Avg, total concentration ([1]; BM mice) was 11 ng/g and the Bulk Brain Homogenate Avg, adjusted free concentration ([1]; Control mice) was 2 ng/g. For the same compound, the Bulk Brain Homogenate Avg, total concentration ([1]; Control mice) was 12 ng/g, the “Kp, uu Brain” value ([1]; Control mice, from bulk brain homogenate and terminal plasma free concentrations) was 0.02 and the Kp uu at 2 h post final dose ([1]; female, CrTac:NCr-Foxnlnu, mouse, oral, BM mice, from bulk brain homogenate and terminal plasma free concentrations) was 0.03. The concentration at 2 h ([1]; female, CrTac:NCr-Foxnlnu, mouse, oral, BM (brain metastases) mice) was 254 ng/mL, the concentration at 2 h ([1]; female, CrTac:NCr-Foxnlnu, mouse, oral, Control mice) was 322 ng/mL and the “MALDI IMS Brain Section Average, total concentration” value ([2]; Monkey 1) was “BLQ”. For the same compound, the “Pre-Dose Plasma, total concentration” value ([2]; Monkey 1, Day 1, po daily 5 days, niraparib 6 mg/kg, olaparib 10 mg/kg) was “BQL”, the “Pre-Dose Plasma, adjusted free concentration” value ([2]; Monkey 1, Day 2) was 8 ng/mL and the “Pre-Dose Plasma, total concentration” value ([2]; Monkey 1, Day 2) was 27 ng/mL. For the same compound, the “Pre-Dose Plasma, adjusted free concentration” value ([2]; Monkey 1, Day 3) was 8 ng/mL, the “Pre-Dose Plasma, total concentration” value ([2]; Monkey 1, Day 3) was 26 ng/mL and the “Pre-Dose Plasma, adjusted free concentration” value ([2]; Monkey 1, Day 4) was 10 ng/mL. The “Pre-Dose Plasma, total concentration” value ([2]; Monkey 1, Day 4) was 33 ng/mL, the “Pre-Dose Plasma, adjusted free concentration” value ([2]; Monkey 1, Day 5) was “(10) ng/mL” and the “Pre-Dose Plasma, total concentration” value ([2]; Monkey 1, Day 5) was 33 ng/mL. For the same compound, the “Bulk Brain Homogenate, adjusted free concentration” value ([2]; Monkey 1) was “(2) ng/g”, the “Bulk Brain Homogenate, total concentration” value ([2]; Monkey 1) was 12 ng/g and the “Terminal CSF” value ([2]; Monkey 1) was 13 ng/mL. The “Terminal Plasma, adjusted free concentration” value ([2]; Monkey 1) was “(99) ng/mL”, the “Kp, uu Brain/Plasma” value ([2]; Monkey 1) was 0.02 and the “MALDI IMS Brain Section Average, total concentration” value ([2]; Monkey 2) was “BLQ”. The “Pre-Dose Plasma, total concentration” value ([2]; Monkey 2, Day 1, po daily 5 days, niraparib 6 mg/kg, olaparib 10 mg/kg) was “BQL”, the “Pre-Dose Plasma, adjusted free concentration” value ([2]; Monkey 2, Day 2) was 16 ng/mL and the “Pre-Dose Plasma, total concentration” value ([2]; Monkey 2, Day 2) was 51 ng/mL. For the same compound, the “Pre-Dose Plasma, adjusted free concentration” value ([2]; Monkey 2, Day 3) was 5 ng/mL, the “Pre-Dose Plasma, total concentration” value ([2]; Monkey 2, Day 3) was 17 ng/mL and the “Pre-Dose Plasma, adjusted free concentration” value ([2]; Monkey 2, Day 4) was 16 ng/mL. The “Pre-Dose Plasma, total concentration” value ([2]; Monkey 2, Day 4) was 53 ng/mL, the “Pre-Dose Plasma, adjusted free concentration” value ([2]; Monkey 2, Day 5) was “(14) ng/mL” and the “Pre-Dose Plasma, total concentration” value ([2]; Monkey 2, Day 5) was 45 ng/mL. For the same compound, the “Bulk Brain Homogenate, adjusted free concentration” value ([2]; Monkey 2) was “(2) ng/g”, the “Bulk Brain Homogenate, total concentration” value ([2]; Monkey 2) was 11 ng/g and the “Terminal CSF” value ([2]; Monkey 2) was 6 ng/mL. The “Terminal Plasma, adjusted free concentration” value ([2]; Monkey 2) was “(78) ng/mL”, the “Kp, uu Brain/Plasma” value ([2]; Monkey 2) was 0.03 and the “detection and distribution in coronal brain sections by MALDI IMS” value ([2]; healthy Rhesus macaque monkeys, five days oral administration) was “not detected”. For the same compound, the “Mean Kp, uu Brain/Plasma” value ([2]; mean of Monkey 1 and 2) was 0.02.
